According to publication PMC9841593 (ACS Medicinal Chemistry Letters, 2022):

target: influenza PAN endonuclease (Influenza A virus, UniProt C3W5S0, DEL52-64/INS51G); assay type: biochemical, influenza A/California/04/2009(H1N1)

| Compound | inhibition of PAN (in words) |
| --- | --- |
| NC(=O)c1[nH]c(Br)cc(=O)c1O [Compound 3] | little difference in activity when compared with compounds 1 or 2 |
| O=c1cc(Br)[nH]c(-c2nnn[nH]2)c1O [Compound 4] | activity comparable to that of the parent structure |
| CONC(=O)c1[nH]c(Br)cc(=O)c1O [Compound 5] | moderate inhibition |
| O=c1[nH]c(-c2[nH]c(Br)cc(=O)c2O)no1 [Compound 7] | most potent IC50 value of the evaluated compounds |
| Cc1nc(-c2[nH]c(Br)cc(=O)c2O)no1 [Compound 8] | good inhibition |
| N#Cc1[nH]c(Br)cc(=O)c1O [Compound 9] | relatively poor inhibition |
| O=c1cc(Br)[nH]c(C2=NCCN2)c1O [Compound 10] | markedly poorer inhibition than the parent MBI |
| O=c1cc(Br)[nH]c(C2=NCCO2)c1O [Compound 11] | markedly poorer inhibition than the parent MBI |
